# Data from patent US11607458B2 (Georgia State University Research Foundation, Inc, priority 2017, dated 2023).
# Columns and labels:
# [1] = HPLC studies of reaction kinetics of tetrazine prodrugs with cyclooctyne alkynes (Kobs, second-order rate constant k2); format: physicochemical; details: for Kobs: prodrug 25 μM; for k2 at 37° C. (second order rate constant) / k2 at r.t (second order rate constant): PBS containing 10% DMSO, n = 3
# Description: Stock solution preparation. Each of the tetrazine prodrugs (compounds 1b, 1c, and 1d) was dissolved in DMSO to afford a 500-μM stock solution. Each of the alkynes (compounds 2a, 2b, 2c, and 2d) was dissolved in DMSO to afford a 50-mM stock solution. Doxorubicin (Dox) and dansylamino compound (DA) 1.1b were each dissolved in DMSO to afford 1-mM stock solutions.
# HPLC method A.: mobile phase A (10 mM NaH2PO4 in water, pH=5.0) and mobile phase B (ACN), flow rate: 1 mL/min, running time: 30 min, the gradient elution method: 25% B from 0 to 6 min, 25% to 50% B from 6 to 8 min, 50% B from 8 to 15 min, 50% to 99% B from 15 to 20 min, 99% B from 20 to 25 min, 99% to 25% B from 25 to 30 min. Detection wavelength: 256 nm. Column: Waters C18 3.5 μM, 4.6×100 mm. Injection volume: 20 μL.
# HPLC method B: mobile phase A (10 mM NaH2PO4 in water, pH=5.0) and mobile phase B (ACN), flow rate: 1 mL/min, running time: 30 min, the gradient elution method: 30% B from 0 to 6 min, 30% to 50% B from 6 to 8 min, 50% B from 8 to 15 min, 50% to 99% B from 15 to 20 min, 99% B from 20 to 25 min. 99% to 30% B from 25 to 30 min. Detection wavelength 1: 256, detection wavelength 2: 337 nm. Column: Waters C18 3.5 μM, 4.6×100 mm. Injection volume: 20 μL.
# (§1) General procedures HPLC studies of reaction kinetics. To three 20-ml vials with 9 mL PBS were added a solution of tetrazine prodrug (500 μL, 500 μM). 350 μL, 300 μL and 250 μL DMSO were added to vial respectively, and then 150 μL, 200 μL and 250 μL of the alkyne solution (50 mM in DMSO) were added to the vials to afford final concentrations of alkyne 0.75 mM, 1 mM and 1.25 mM in PBS (10% DMSO, 25 μM prodrug) respectively. The reaction was stirred at r.t or 37° C. respectively. Every 30 min about 500 μL reaction mixtures were taken out and 20 μL of them were injected into the HPLC by the autosampler; the rest of them were poured back to the reaction mixture. (Note: In the cases of prodrugs 1d or 1b reacting with alkyne 2d at 37° C., the final concentrations of 2d in the kinetic studies were 250 μM, 300 μM and 350 μM).
# Determination of second-order rate constants. The reaction rate constant, kobs, was calculated for each concentration of the alkyne by fitting the prodrug areas versus time using eq. 1: Y=A exp(−kobst) eq. 1 where Y is the prodrug area, and t is time. The pseudo-first-order rate constant, kobs, was then plotted against the concentration of alkyne to yield the second-order rate constant using eq 2: kobs=k2[Alkyne] eq. 2 where k2 is the second-order rate constant.
# [2] = Release of the parent drug (Dox / dansyl amine) from prodrugs treated with alkynes, monitored by HPLC; format: physicochemical; details: r.t, PBS 10% DMSO
# Description: Standard curve of Dox concentration measurement. To four HPLC vials containing 0.9 mL PBS (size: 1.5 mL) were added 25, 15, 20, 10 μL Dox stock solution (1 mM) respectively. Then defined amounts DMSO (975, 985, 980, and 990 μL) were added to each vial to afford final concentration of four vials were 25, 15, 20, 10 μM in PBS (10% DMSO), respectively. The samples were analyzed with HPLC method A. Dox retention time: 4.0 min.
# Standard curve for DA concentration measurement. To four HPLC vials containing 0.9 mL PBS (size: 1.5 mL) were added 25, 15, 20, 10 μL Dox stock solution (1 mM) respectively. Then defined amounts DMSO (975, 985, 980, and 990 μL) were added to each vial to afford final concentration of four vials were 25, 15, 20, 10 μM in PBS (10% DMSO), respectively. The samples were analyzed with HPLC method B. DA retention time: 5.8 min.
# as §1
# Results. The results from the reaction kinetics studies of the tetrazine-cyclooctyne system are summarized below in Table 4. Prodrugs 1d or 1b (25 μM) were treated with alkynes 2d, 2c ,2a, or 2b at different concentrations at room temperature (r.t.) or 37° C., respectively. The prodrug consumption and release of the parent drug were monitored by HPLC (Table 4).
structure (smiles),measurement,setting,value
C#CCOc1ccc(-c2nnc(C(=O)NC3CC(OC4CC(O)(C(=O)CO)Cc5c(O)c6c(c(O)c54)C(=O)c4c(OC)cccc4C6=O)OC(C)C3O)nn2)cc1 (stereo not drawn) [1b],Kobs,"[1]; 37° C., alkyne 2a 0.75 mM, Expt. 1",0.418 h⁻¹
same,Kobs,"[1]; 37° C., alkyne 2a 0.75 mM, Expt. 2",0.438 h⁻¹
same,Kobs,"[1]; 37° C., alkyne 2a 0.75 mM, Expt. 3",0.495 h⁻¹
same,Kobs,"[1]; 37° C., alkyne 2a 1.00 mM, Expt. 1",0.546 h⁻¹
same,Kobs,"[1]; 37° C., alkyne 2a 1.00 mM, Expt. 2",0.598 h⁻¹
same,Kobs,"[1]; 37° C., alkyne 2a 1.00 mM, Expt. 3",0.678 h⁻¹
same,Kobs,"[1]; 37° C., alkyne 2a 1.25 mM, Expt. 1",0.673 h⁻¹
same,Kobs,"[1]; 37° C., alkyne 2a 1.25 mM, Expt. 2",0.739 h⁻¹
same,Kobs,"[1]; 37° C., alkyne 2a 1.25 mM, Expt. 3",0.857 h⁻¹
same,Kobs,"[1]; 37° C., alkyne 2b 0.75 mM, Expt. 1",0.486 h⁻¹
same,Kobs,"[1]; 37° C., alkyne 2b 0.75 mM, Expt. 2",0.503 h⁻¹
same,Kobs,"[1]; 37° C., alkyne 2b 0.75 mM, Expt. 3",0.533 h⁻¹
same,Kobs,"[1]; 37° C., alkyne 2b 1.00 mM, Expt. 1",0.635 h⁻¹
same,Kobs,"[1]; 37° C., alkyne 2b 1.00 mM, Expt. 2",0.672 h⁻¹
same,Kobs,"[1]; 37° C., alkyne 2b 1.00 mM, Expt. 3",0.622 h⁻¹
same,Kobs,"[1]; 37° C., alkyne 2b 1.25 mM, Expt. 1",0.783 h⁻¹
same,Kobs,"[1]; 37° C., alkyne 2b 1.25 mM, Expt. 2",0.846 h⁻¹
same,Kobs,"[1]; 37° C., alkyne 2b 1.25 mM, Expt. 3",0.905 h⁻¹
same,Kobs,"[1]; 37° C., alkyne 2c 0.75 mM, Expt. 1",0.0607 h⁻¹
same,Kobs,"[1]; 37° C., alkyne 2c 0.75 mM, Expt. 2",0.0671 h⁻¹
same,Kobs,"[1]; 37° C., alkyne 2c 0.75 mM, Expt. 3",0.0696 h⁻¹
same,Kobs,"[1]; 37° C., alkyne 2c 1.00 mM, Expt. 1",0.0798 h⁻¹
same,Kobs,"[1]; 37° C., alkyne 2c 1.00 mM, Expt. 2",0.0895 h⁻¹
same,Kobs,"[1]; 37° C., alkyne 2c 1.00 mM, Expt. 3",0.0941 h⁻¹
same,Kobs,"[1]; 37° C., alkyne 2c 1.25 mM, Expt. 1",0.0986 h⁻¹
same,Kobs,"[1]; 37° C., alkyne 2c 1.25 mM, Expt. 2",0.112 h⁻¹
same,Kobs,"[1]; 37° C., alkyne 2c 1.25 mM, Expt. 3",0.119 h⁻¹
same,Kobs,"[1]; 37° C., alkyne 2d 0.25 mM, Expt. 1",1.90 h⁻¹
same,Kobs,"[1]; 37° C., alkyne 2d 0.25 mM, Expt. 2",1.81 h⁻¹
same,Kobs,"[1]; 37° C., alkyne 2d 0.25 mM, Expt. 3",1.97 h⁻¹
same,Kobs,"[1]; 37° C., alkyne 2d 0.3 mM, Expt. 1",2.28 h⁻¹
same,Kobs,"[1]; 37° C., alkyne 2d 0.3 mM, Expt. 2",2.15 h⁻¹
same,Kobs,"[1]; 37° C., alkyne 2d 0.3 mM, Expt. 3",2.38 h⁻¹
same,Kobs,"[1]; 37° C., alkyne 2d 0.35 mM, Expt. 1",2.65 h⁻¹
same,Kobs,"[1]; 37° C., alkyne 2d 0.35 mM, Expt. 2",2.48 h⁻¹
same,Kobs,"[1]; 37° C., alkyne 2d 0.35 mM, Expt. 3",2.78 h⁻¹
same,k2 at 37° C. (second order rate constant),"[1]; alkyne 2a, 37° C.",0.17 M⁻¹ s⁻¹
same,k2 at 37° C. (second order rate constant),"[1]; alkyne 2a, 37° C., listed as lb",0.17 ± 0.05 M⁻¹ s⁻¹
same,k2 at r.t (second order rate constant),"[1]; alkyne 2a, r.t",0.061 ± 0.013 M⁻¹ s⁻¹
same,k2 at 37° C. (second order rate constant),"[1]; alkyne 2b, 37° C.",0.19 M⁻¹ s⁻¹
same,k2 at 37° C. (second order rate constant),"[1]; alkyne 2b, 37° C., listed as lb",0.19 ± 0.04 M⁻¹ s⁻¹
same,k2 at r.t (second order rate constant),"[1]; alkyne 2b, r.t",0.065 ± 0.013 M⁻¹ s⁻¹
same,k2 at 37° C. (second order rate constant),"[1]; alkyne 2c, 37° C.",0.025 ± 0.006 M⁻¹ s⁻¹
same,k2 at r.t (second order rate constant),"[1]; alkyne 2c, r.t",0.0078 ± 0.0009 M⁻¹ s⁻¹
same,k2 at 37° C. (second order rate constant),"[1]; alkyne 2d, 37° C.",2.1 M⁻¹ s⁻¹
same,k2 at 37° C. (second order rate constant),"[1]; alkyne 2d, 37° C., listed as lb",2.1 ± 0.4 M⁻¹ s⁻¹
same,k2 at r.t (second order rate constant),"[1]; alkyne 2d, r.t",0.36 ± 0.07 M⁻¹ s⁻¹
same,Kobs,"[1]; r.t, alkyne 2a 0.75 mM, Expt. 1",0.183 h⁻¹
same,Kobs,"[1]; r.t, alkyne 2a 0.75 mM, Expt. 2",0.191 h⁻¹
same,Kobs,"[1]; r.t, alkyne 2a 0.75 mM, Expt. 3",0.185 h⁻¹
same,Kobs,"[1]; r.t, alkyne 2a 1.00 mM, Expt. 1",0.235 h⁻¹
same,Kobs,"[1]; r.t, alkyne 2a 1.00 mM, Expt. 2",0.246 h⁻¹
same,Kobs,"[1]; r.t, alkyne 2a 1.00 mM, Expt. 3",0.247 h⁻¹
same,Kobs,"[1]; r.t, alkyne 2a 1.25 mM, Expt. 1",0.289 h⁻¹
same,Kobs,"[1]; r.t, alkyne 2a 1.25 mM, Expt. 2",0.295 h⁻¹
same,Kobs,"[1]; r.t, alkyne 2a 1.25 mM, Expt. 3",0.307 h⁻¹
same,Kobs,"[1]; r.t, alkyne 2b 0.75 mM, Expt. 1",0.201 h⁻¹
same,Kobs,"[1]; r.t, alkyne 2b 0.75 mM, Expt. 2",0.195 h⁻¹
same,Kobs,"[1]; r.t, alkyne 2b 0.75 mM, Expt. 3",0.197 h⁻¹
same,Kobs,"[1]; r.t, alkyne 2b 1.00 mM, Expt. 1",0.261 h⁻¹
same,Kobs,"[1]; r.t, alkyne 2b 1.00 mM, Expt. 2",0.257 h⁻¹
same,Kobs,"[1]; r.t, alkyne 2b 1.00 mM, Expt. 3",0.261 h⁻¹
same,Kobs,"[1]; r.t, alkyne 2b 1.25 mM, Expt. 1",0.309 h⁻¹
same,Kobs,"[1]; r.t, alkyne 2b 1.25 mM, Expt. 2",0.318 h⁻¹
same,Kobs,"[1]; r.t, alkyne 2b 1.25 mM, Expt. 3",0.326 h⁻¹
same,Kobs,"[1]; r.t, alkyne 2c 0.75 mM, Expt. 1",0.0202 h⁻¹
same,Kobs,"[1]; r.t, alkyne 2c 0.75 mM, Expt. 2",0.0209 h⁻¹
same,Kobs,"[1]; r.t, alkyne 2c 0.75 mM, Expt. 3",0.0207 h⁻¹
same,Kobs,"[1]; r.t, alkyne 2c 1.00 mM, Expt. 1",0.0282 h⁻¹
same,Kobs,"[1]; r.t, alkyne 2c 1.00 mM, Expt. 2",0.0262 h⁻¹
same,Kobs,"[1]; r.t, alkyne 2c 1.00 mM, Expt. 3",0.0278 h⁻¹
same,Kobs,"[1]; r.t, alkyne 2c 1.25 mM, Expt. 1",0.0353 h⁻¹
same,Kobs,"[1]; r.t, alkyne 2c 1.25 mM, Expt. 2",0.0341 h⁻¹
same,Kobs,"[1]; r.t, alkyne 2c 1.25 mM, Expt. 3",0.0344 h⁻¹
same,Kobs,"[1]; r.t, alkyne 2d 0.75 mM, Expt. 1",0.894 h⁻¹
same,Kobs,"[1]; r.t, alkyne 2d 0.75 mM, Expt. 2",0.976 h⁻¹
same,Kobs,"[1]; r.t, alkyne 2d 0.75 mM, Expt. 3",0.993 h⁻¹
same,Kobs,"[1]; r.t, alkyne 2d 1.00 mM, Expt. 1",1.18 h⁻¹
same,Kobs,"[1]; r.t, alkyne 2d 1.00 mM, Expt. 2",1.30 h⁻¹
same,Kobs,"[1]; r.t, alkyne 2d 1.00 mM, Expt. 3",1.34 h⁻¹
same,Kobs,"[1]; r.t, alkyne 2d 1.25 mM, Expt. 1",1.47 h⁻¹
same,Kobs,"[1]; r.t, alkyne 2d 1.25 mM, Expt. 2",1.62 h⁻¹
same,Kobs,"[1]; r.t, alkyne 2d 1.25 mM, Expt. 3",1.69 h⁻¹
same,Time of the Dox peak (in brackets in the Dox Peak % cell),[2]; alkyne 2a,19 h
same,Time of the Dox peak (in brackets in the Dox Peak % cell),[2]; alkyne 2b,18 h
same,Time of the Dox peak (in brackets in the Dox Peak % cell),[2]; alkyne 2c,21 h
same,Time of the Dox peak (in brackets in the Dox Peak % cell),[2]; alkyne 2d,48 h
